# Test system: DAOY cells
# Assay: LDH release cytotoxicity assay
# Assay type: cell-based, human
# Settings: DAOY cells treated for 16 hours
# Procedure: Lactate dehydrogenase (LDH) levels as a measure of cell death were determined using the Non-radioactive Cytotoxicity kit (Promega, Madison, Wis.) according to manufacturer's instructions. […] Cell debris was removed by centrifugation. Viable cell LDH was collected from cells lysed by freezing for 15 minutes at −70° C. followed by thawing at 37° C. The medium was collected and cleared from cell debris by centrifugation. The relative release of LDH was determined as the ratio of released LDH versus total LDH from viable cells.
# Data represent mean±SEM of three independent experiments.
smiles,measurement,value
"COc1cc(C=CC(C)=O)ccc1O [half-curcumin, 4-(4-hydroxy-3-methoxyphenyl)-3-buten-2-one]",cell death (LDH release),failed to induce cell death
